According to patent US11931424B2, “Combination MCL-1 inhibitors with anti-body drug conjugates” (Gilead Sciences, Inc., priority 2021, dated 2024):

Tested on: panel of breast cancer cell lines
Experiment: Compound A with targeted agents and chemotherapies, 72-hour in vitro proliferation assays
Format: cell-based
Conditions: 72-hour proliferation
[1] = MCF7 cells, Compound A × partner agent
[2] = MDA-MB-175-VII cells, Compound A × partner agent
[3] = MDA-MB-231 cells, Compound A × partner agent
[4] = MDA-MB-361 cells, Compound A × partner agent
[5] = MDA-MB-436 cells, Compound A × partner agent
[6] = MDA-MB-453 cells, Compound A × partner agent
[7] = MDA-MB-468 cells, Compound A × partner agent
[8] = SK-BR-3 cells, Compound A × partner agent
[9] = SUM159PT cells, combination of compound A with the named agent
[10] = T47D cells, combination of compound A with the named agent
[11] = ZR-75-1 cells, combination of compound A with the named agent
[12] = ZR-75-30 cells, combination of compound A with the named agent

N.N.O=C([O-])C1(C(=O)[O-])CCC1.[Pt+2] [Carboplatin]
HSA volume (HCC2218, compound A × partner): 0.49
Loewe Volume (HCC2218, compound A × partner): −1.33
Synergy Score (HCC2218, compound A × partner): 5.27
Best CI (HDQ-P1, compound A × partner): 0.92
Best CI Level (HDQ-P1, compound A × partner): 35
Bliss Volume (HDQ-P1, compound A × partner): −3.17
HSA volume (HDQ-P1, compound A × partner): −3.06
Loewe Volume (HDQ-P1, compound A × partner): −3.13
Synergy Score (HDQ-P1, compound A × partner): 0.54
Best CI (HMC-1-8, compound A × partner): 0.72
Best CI Level (HMC-1-8, compound A × partner): 155
Bliss Volume (HMC-1-8, compound A × partner): 9.25
HSA volume (HMC-1-8, compound A × partner): 4.09
Loewe Volume (HMC-1-8, compound A × partner): 3.94
Synergy Score (HMC-1-8, compound A × partner): 9.60
Best CI (JIMT-1, compound A × partner): 0.96
Best CI Level (JIMT-1, compound A × partner): 25
Bliss Volume (JIMT-1, compound A × partner): 3.78
HSA volume (JIMT-1, compound A × partner): −0.17
Loewe Volume (JIMT-1, compound A × partner): 1.92
Synergy Score (JIMT-1, compound A × partner): 0.69
Best CI (KPL-1, compound A × partner): 0.89
Best CI Level (KPL-1, compound A × partner): 105
Bliss Volume (KPL-1, compound A × partner): 0.04
HSA volume (KPL-1, compound A × partner): 1.33
Loewe Volume (KPL-1, compound A × partner): 0.65
Synergy Score (KPL-1, compound A × partner): 2.66
Best CI [1]: 0.40
Best CI Level [1]: 75
Bliss Volume [1]: 8.40
HSA volume [1]: 5.66
Loewe Volume [1]: 4.40
Synergy Score [1]: 6.10
Best CI [2]: 0.60
Best CI Level [2]: 80
Bliss Volume [2]: 15.45
HSA volume [2]: 7.97
Loewe Volume [2]: 12.14
Synergy Score [2]: 9.73
Best CI [3]: 0.91
Best CI Level [3]: 50
Bliss Volume [3]: 3.11
HSA volume [3]: 2.11
Loewe Volume [3]: 3.30
Synergy Score [3]: 1.89
Best CI [4]: 0.82
Best CI Level [4]: 135
Bliss Volume [4]: 2.52
HSA volume [4]: 1.01
Loewe Volume [4]: 1.40
Synergy Score [4]: 7.41
Best CI [5]: 1.72
Best CI Level [5]: 135
Bliss Volume [5]: 1.31
HSA volume [5]: 1.06
Loewe Volume [5]: 1.16
Synergy Score [5]: 2.53
Best CI [6]: 1.12
Best CI Level [6]: 150
Bliss Volume [6]: 9.75
HSA volume [6]: 5.44
Loewe Volume [6]: 6.37
Synergy Score [6]: 10.04
Best CI [7]: 0.56
Best CI Level [7]: 135
Bliss Volume [7]: 19.05
HSA volume [7]: 4.48
Loewe Volume [7]: 3.36
Synergy Score [7]: 7.68
Best CI [8]: 0.35
Best CI Level [8]: 160
Bliss Volume [8]: 11.97
HSA volume [8]: 1.74
Loewe Volume [8]: 1.40
Synergy Score [8]: 6.87
Best CI [9]: 0.52
Best CI Level [9]: 20
Bliss Volume [9]: 1.33
HSA volume [9]: −1.99
Loewe Volume [9]: −0.01
Synergy Score [9]: 0.81
Best CI [10]: 1.01
Best CI Level [10]: 30
Bliss Volume [10]: 0.78
HSA volume [10]: −1.67
Loewe Volume [10]: 0.98
Synergy Score [10]: 1.42
Best CI [11]: 0.88
Best CI Level [11]: 100
Bliss Volume [11]: 4.99
HSA volume [11]: 6.14
Loewe Volume [11]: 6.57
Synergy Score [11]: 7.91
Best CI [12]: 0.30
Best CI Level [12]: 100
Bliss Volume [12]: 8.34
HSA volume [12]: 6.81
Loewe Volume [12]: 5.78
Synergy Score [12]: 12.96
